Experimental data taken from patent US11724992B2 (Novartis AG, priority 2017, dated 2023).

System: IL-1β production in PMA-differentiated THP-1 cells
Test: IL-1β production in PMA-differentiated THP-1 cells stimulated with gramicidin (hTHP-1 assay, 2% fetal bovine serum; Procedures 1-3)
Format: cell-based, human
Conditions: Homo sapiens, THP-1, hTHP-1 assay containing 2% fetal bovine serum; class symbols; read-out: hTHP-1 IC50 (Average IC50 of compounds in hTHP-1 assay)
Description: The following protocol is suitable for testing the activity of the compounds disclosed herein.
Procedure 1: IL-1β Production in PMA-Differentiated THP-1 Cells Stimulated with Gramicidin
THP-1 cells were purchased from the American Type Culture Collection and sub-cultured according to instructions from the supplier. Cells were cultured in complete RPMI 1640 (containing 10% heat inactivated FBS, penicillin (100 units/ml) and streptomycin (100 μg/ml)), and maintained in log phase prior to experimental setup. Prior to the experiment, compounds were dissolved in dimethyl sulfoxide (DMSO) to generate a 30 mM stock. The compound stock was first pre-diluted in DMSO to 3, 0.34, 0.042 and 0.0083 mM intermediate concentrations and subsequently spotted using Echo550 liquid handler into an empty 384-well assay plate to achieve desired final concentration (e.g. 100, 33, 11, 3.7, 1.2, 0.41, 0.14, 0.046, 0.015, 0.0051, 0.0017 μM). DMSO was backfilled in the plate to achieve a final DMSO assay concentration of 0.37%. The plate was then sealed and stored at room temperature until required.
THP-1 cells were treated with PMA (Phorbol 12-myristate 13-acetate) (20 ng/ml) for 16-18 hours. On the day of the experiment the media was removed and adherent cells were detached with trypsin for 5 minutes. Cells were then harvested, washed with complete RPMI 1640, spun down, and resuspended in RPMI 1640 (containing 2% heat inactivated FBS, penicillin (100 units/ml) and streptomycin (100 μg/ml). The cells were plated in the 384-well assay plate containing the spotted compounds at a density of 50,000 cells/well (final assay volume 50 μl). Cells were incubated with compounds for 1 hour and then stimulated with gramicidin (5 μM) (Enzo) for 2 hours. Plates were then centrifuged at 340 g for 5 min. Cell free supernatant (40 μL) was collected using a 96-channel PlateMaster (Gilson) and the production of IL-1β was evaluated by HTRF (cisbio). The plates were incubated for 18 h at 4° C. and read using the preset HTRF program (donor emission at 620 nm, acceptor emission at 668 nm) of the SpectraMax i3x spectrophotometer (Molecular Devices, software SoftMax 6). A vehicle only control and a dose titration of CRID3 (100-0.0017 μM) were run concurrently with each experiment.
Procedure 2: IL-1β Production in PMA-Differentiated THP-1 Cells Stimulated with Gramicidin
THP-1 cells were purchased from the American Type Culture Collection and sub-cultured according to instructions from the supplier. Prior to experiments, cells were cultured in complete RPMI 1640 (containing 10% heat inactivated FBS, penicillin (100 units/ml) and streptomycin (100 μg/ml)), and maintained in log phase prior to experimental setup. Prior to the experiment THP-1 were treated with PMA (Phorbol 12-myristate 13-acetate) (20 ng/ml) for 16-18 hours. Compounds were dissolved in dimethyl sulfoxide (DMSO) to generate a 30 mM stock. On the day of the experiment the media was removed and adherent cells were detached with trypsin for 5 minutes. Cells were then harvested, washed with complete RPMI 1640, spun down, resuspended in RPMI 1640 (containing 2% heat inactivated FBS, penicillin (100 units/ml) and streptomycin (100 μg/ml). The cells were plated in a 384-well plate at a density of 50,000 cells/well (final assay volume 50 μl). Compounds were first dissolved in assay medium to obtain a 5× top concentration of 500 μM. 10 step dilutions (1:3) were then undertaken in assay medium containing 1.67% DMSO. 5× compound solutions were added to the culture medium to achieve desired final concentration (e.g. 100, 33, 11, 3.7, 1.2, 0.41, 0.14, 0.046, 0.015, 0.0051, […]). Final DMSO concentration was at 0.37%. Cells were incubated with compounds for 1 hour and then stimulated with gramicidin (5 μM) (Enzo) for 2 hours. Plates were then centrifuged at 340 g for 5 min. Cell free supernatant (40 μL) was collected using a 96-channel PlateMaster (Gilson) and the production of IL-1β was evaluated by HTRF (cisbio). […]

| IC50 [µM] | SMILES |
| --- | --- |
| 0.008 to 0.04 | CC(C)(O)c1ncc([S@](N)(=O)=NC(=O)Nc2c3c(cc4c2CC4)CCC3)s1 (single isomer, unassigned) [Example 224] |
| 1 to 5 | CC(C)(O)c1ncc([S@@](N)(=O)=NC(=O)Nc2c3c(cc4c2CC4)CCC3)s1 (single isomer, unassigned) [Example 225] |

Same assay, conditions: hTHP-1 assay containing 2% fetal bovine serum; class symbols; read-out: hTHP-1 IC50 (Average IC50 of compounds in hTHP-1 assay)

| IC50 [µM] | SMILES |
| --- | --- |
| 5 to 30 | CN(C)Cc1cccc(S(N)(=O)=NC(=O)Nc2c3c(cc4c2CCC4)CCC3)c1 (single isomer, unassigned) [Example 161] |
| 5 to 30 | Cc1cc(S(N)(=O)=NC(=O)Nc2c3c(cc4c2CCC4)CCC3)ccc1C(C)(C)O (single isomer, unassigned) [Example 163] |
| 1 to 5 | CC(C)(O)c1cc(F)cc(S(N)(=O)=NC(=O)Nc2c3c(c(F)c4c2CCC4)CCC3)c1 (single isomer, unassigned) [Example 170] |
| 0.2 to 1 | CC(C)(O)c1cc(F)cc(S(N)(=O)=NC(=O)Nc2c3c(c(F)c4c2CCC4)CCC3)c1 (single isomer, unassigned) [Example 171] |
| 0.2 to 1 | Cc1cc(S(N)(=O)=NC(=O)Nc2c(C(C)C)cc(OC(F)F)cc2C(C)C)sc1C(C)(C)O (single isomer, unassigned) [Example 172] |
| 1 to 5 | Cc1cc(S(N)(=O)=NC(=O)Nc2c(C(C)C)cc(OC(F)F)cc2C(C)C)sc1C(C)(C)O (single isomer, unassigned) [Example 173] |
| 0.2 to 1 | CC(C)(O)c1cc(S(N)(=O)=NC(=O)Nc2c3c(c(F)c4c2CCC4)CCC3)ccc1F (single isomer, unassigned) [Example 174] |
| 0.008 to 0.04 | Cc1nc(C(C)(C)O)sc1S(N)(=O)=NC(=O)Nc1c2c(c(F)c3c1CCC3)CCC2 (single isomer, unassigned) [Example 176] |
| 5 to 30 | CC(C)(O)c1ccc(S(N)(=O)=NC(=O)Nc2c3c(cc4c2CCC4)CCC3)cc1F (single isomer, unassigned) [Example 178] |
| 1 to 5 | CC(C)(O)c1ccc(S(N)(=O)=NC(=O)Nc2c3c(cc4c2CCC4)CCC3)cc1F (single isomer, unassigned) [Example 179] |
| 5 to 30 | CNS(=O)(=NC(=O)Nc1c2c(c(F)c3c1CCC3)CCC2)c1cc(C(C)(C)O)cs1 (single isomer, unassigned) [Example 181] |
| 0.008 to 0.04 | CC(C)c1cc(C#N)cc(C(C)C)c1NC(=O)N=S(N)(=O)c1sc(C(C)(C)O)cc1F (single isomer, unassigned) [Example 182] |
| 5 to 30 | CC(C)c1cc(C#N)cc(C(C)C)c1NC(=O)N=S(N)(=O)c1cc(C#N)cc(C(C)(C)O)c1 (single isomer, unassigned) [Example 185] |
| 5 to 30 | CC(C)c1cc(C#N)cc(C(C)C)c1NC(=O)N=S(N)(=O)c1ccc(C(C)(C)O)s1 (single isomer, unassigned) [Example 187] |
| 5 to 30 | CC(C)(O)c1nc(CO)c(S(N)(=O)=NC(=O)Nc2c3c(c(C#N)c4c2CCC4)CCC3)s1 (single isomer, unassigned) [Example 191] |
| 1 to 5 | CC(C)c1cc(C#N)c(F)c(C(C)C)c1NC(=O)N=S(N)(=O)c1sc(C(C)(C)O)nc1CO (single isomer, unassigned) [Example 194] |
| < 0.008 | CC(C)(O)c1coc(S(N)(=O)=NC(=O)Nc2c3c(cc4c2CCC4)CCC3)c1 (single isomer, unassigned) [Example 203] |
| 0.008 to 0.04 | CC(C)(O)c1csc(S(N)(=O)=NC(=O)Nc2c3c(c(F)c4c2CCC4)CCC3)c1 (single isomer, unassigned) [Example 206] |
| 0.2 to 1 | CC(C)(O)c1csc(S(N)(=O)=NC(=O)Nc2c3c(c(F)c4c2CCC4)CCC3)c1 (single isomer, unassigned) [Example 207] |

More lines, now with the values behind:

| SMILES | IC50 [µM] |
| --- | --- |
| CC(C)(O)c1ccc(S(N)(=O)=NC(=O)Nc2c3c(c(F)c4c2CCC4)CCC3)c(Cl)c1 (single isomer, unassigned) [Example 159] | 5 to 30 |
| CN(C)Cc1cccc(S(N)(=O)=NC(=O)Nc2c3c(cc4c2CCC4)CCC3)c1 (single isomer, unassigned) [Example 160] | 0.2 to 1 |
| Cc1cc(S(N)(=O)=NC(=O)Nc2c3c(cc4c2CCC4)CCC3)ccc1C(C)(C)O (single isomer, unassigned) [Example 162] | 0.2 to 1 |
| Cc1nc(C(C)(C)O)sc1S(N)(=O)=NC(=O)Nc1c2c(cc3c1CCC3)CCC2 (single isomer, unassigned) [Example 164] | 0.008 to 0.04 |
| Cc1nc(C(C)(C)O)sc1S(N)(=O)=NC(=O)Nc1c2c(cc3c1CCC3)CCC2 (single isomer, unassigned) [Example 165] | 1 to 5 |
| CC(C)(O)c1cc(S(N)(=O)=NC(=O)Nc2c3c(c(F)c4c2CCC4)CCC3)ccc1F (single isomer, unassigned) [Example 175] | 1 to 5 |
| Cc1nc(C(C)(C)O)sc1S(N)(=O)=NC(=O)Nc1c2c(c(F)c3c1CCC3)CCC2 (single isomer, unassigned) [Example 177] | 1 to 5 |
| CNS(=O)(=NC(=O)Nc1c2c(c(F)c3c1CCC3)CCC2)c1cc(C(C)(C)O)cs1 (single isomer, unassigned) [Example 180] | 1 to 5 |
| CC(C)c1cc(C#N)cc(C(C)C)c1NC(=O)N=S(N)(=O)c1sc(C(C)(C)O)cc1F (single isomer, unassigned) [Example 183] | 0.2 to 1 |
| CC(C)c1cc(C#N)cc(C(C)C)c1NC(=O)N=S(N)(=O)c1cc(C#N)cc(C(C)(C)O)c1 (single isomer, unassigned) [Example 184] | 0.2 to 1 |
| CC(C)c1cc(C#N)cc(C(C)C)c1NC(=O)N=S(N)(=O)c1ccc(C(C)(C)O)s1 (single isomer, unassigned) [Example 186] | 0.04 to 0.2 |
| CC(C)(O)c1nc(CO)c(S(N)(=O)=NC(=O)Nc2c3c(c(C#N)c4c2CCC4)CCC3)s1 (single isomer, unassigned) [Example 190] | 0.2 to 1 |
| CC(C)c1cc(C#N)c(F)c(C(C)C)c1NC(=O)N=S(N)(=O)c1sc(C(C)(C)O)nc1CO (single isomer, unassigned) [Example 195] | 5 to 30 |
| CC(C)(O)c1coc(S(N)(=O)=NC(=O)Nc2c3c(cc4c2CCC4)CCC3)c1 (single isomer, unassigned) [Example 202] | 1 to 5 |
| CC(C)(O)c1cnc(S(N)(=O)=NC(=O)Nc2c3c(cc4c2CCC4)CCC3)s1 (single isomer, unassigned) [Example 296, (R) or (S)-N′-((1,2,3,5,6,7-hexahydro-s-indacen-4-yl)carbamoyl)-5-(2-hydroxypropan-2-yl)thiazole-2-sulfonimidamide] | < 0.008 |
